Source: patent publication US10206900B2, “Treatments for fibrotic diseases” (MOR RESEARCH APPLICATIONS LTD., priority 2013, dated 2019)

How the values were obtained:
Assay type in all cases: cell-based
[1] = tested on: CTGF; experiment: CTGF transcription by qPCR in RPE cells; conditions: 1 μM, TGF-β1, 6 h, 16 h and 24 h
Description: (§1) FIG. 3A: RPE cells were plated on fibronectin-coated glass coverslips, serum-starved for 16 hours, pretreated with 5Z-7-oxozeaenol (1 μM) or SB431542 (10 μM), or DMSO for 1 hour, then treated with or without TGF-β1 for 2 days. Following treatment, the cells were stained with rhodamine-phalloidin (actin fibers-red) and DAPI (blue) and visualized by confocal microscopy. Scale bars: […]. FIG. 3B: Serum-starved RPE cells pretreated with 5Z-7-oxozeaenol (1 μM) or DMSO for 1 hour, and were exposed to TGF-β as in FIG. 3A. Total RNA was extracted at each time point and qPCR was performed. Transcription levels of CTGF were determined after 6 h, 16 h and 24 h. Bars represent the specific mRNA amount relative to GAPDH mRNA in the same samples. All experiments were performed in triplicates. A representative histogram from two independent experiments is shown. FIG. 3C: RPE cells were plated and treated as in FIG. 3A. Following treatment, the cells were immunostained with E-cadherin antibodies (green) and DAPI (blue). Representative photographs of two independent experiments are shown. CTGF, an important stimulant of fibrosis, functions as a downstream mediator of TGF-β, stimulating cell proliferation and cell matrix deposition (He et al., Invest Ophthalmol Vis Sci 2008, 49:4078-4088). We examined the association between TGF-β1 and CTFG expression in RPE cells by Real Time PCR (FIG. 3B).

[2] = tested on: E-cadherin; experiment: E-cadherin immunostaining in RPE cells; conditions: 1 μM prior to TGF-β1 stimulation
Description: as §1, with “A recent publication has shown that down-regulation” for “CTGF, an important stimulant”, “the cell-cell adhesion protein E-cadherin, was considered” for “fibrosis, functions as”, “hallmark” for “downstream mediator”, “EMT in RPE cells ([…]” for “TGF-β, stimulating cell proliferation and cell matrix deposition (He”, “2010, 51:2755-2763). […]” for “2008, 49:4078-4088). We examined the association between TGF-β1 and CTFG expression in RPE cells by Real Time PCR (FIG. 3B).”

[3] = tested on: RPE cells; experiment: Floating collagen matrix contraction assay in full serum; conditions: 1 μM, full medium, 24 hours, control cells 50%
Description: FIG. 5A: RPE cells were pre-treated with or without 5Z-7-oxozeaenol (1 μM) and seeded in collagen lattices in full medium. The experiments were performed in triplicates. Lattices were photo-documented after 24 hours and measured using Image-J software. […] Bars are Mean±SD. The transition of RPE cells to myofibroblasts is characterized, among other aspects, by increased contractile activity (Umazume et al., Invest Ophthalmol Vis Sci 2013, 54:1150-1159; Sakamoto et al., Curr Eye Res 1994, 13:451-459; West-Mays et al., Int J Biochem Cell Biol 2006, 38:1625-1631; Ma et al., Clinical & experimental ophthalmology 2012, 40:e76-86). To examine whether TAK1 is a general regulator of the EMT process affecting cell contractility, floating collagen matrix contraction assay was performed. The test was carried out in full serum with or without TAK1 inhibitor (FIGS. 5A and 5B). While in the control cells significant contraction was observed after 24 hours, reaching 50% of the initial size, TAK1 inhibition impaired the capacity of the cells to contract. The collagen lattice remained nearly 80% from the initial size (FIGS. 5A and B).

[4] = tested on: TGF-β cascades in epithelial lung cells; experiment: Western blot of TGF-β cascades in A549 lung cells; conditions: 1 μM for 1 hour, TGF-β 2.5 ng/ml
Description: FIG. 14: Inhibition of TAK1 by 5z-7 abolishes the activation of TGF-β cascades in epithelial lung cells: Serum-starved A549 cells were pretreated with or without with 5Z-7-oxozeaenol (1 μM) for 1 hour and then with TGF-β (2.5 ng/ml) for the indicated times. Total protein extracts were analyzed by western blot using the indicated antibodies. […] Similarly, A549 lung cells were pretreated with or without with 5Z-7-oxozeaenol (1 μM) for 1 hour and then with TGF-β (2.5 ng/ml).

COc1cc(O)c2c(c1)/C=C/C[C@H](O)[C@H](O)C(=O)/C=C\C[C@H](C)OC2=O [5Z-7-oxozeaenol]
levels of CTGF (mRNA relative to GAPDH) [1]: gradually reduced the levels of CTGF
E-cadherin expression upon TGF-β1 [2]: allowing normal E-cadherin expression
collagen lattice area relative to initial size [3]: ~80%
fibrotic affect stimulated by TGF-β (western blot) [4]: abolishes the fibrotic affect
